Test results taken from US8940771B2, “Organic compounds” (Novartis AG, priority 2007, dated 2015).

Columns and labels:
Type in all cases: biochemical
[1] = target: PI3Kα (p85iSH2(461-568)-p110α(21-1068)-His, BV1075) (Homo sapiens (Human), UniProt P42336); assay: PI3K KinaseGlo assay, PI3Kalpha; conditions: for IC50: KinaseGlo, 1 μM ATP; for Selectivity PI3Kalpha vs. PI3Kdelta: ratio of PI3Kdelta IC50 to PI3Kalpha IC50
[2] = target: PI3Kδ (p85iSH2(461-568)-p110δ(2-1044)-His, BV1060) (Homo sapiens (Human), UniProt O00329); assay: PI3K KinaseGlo assay, PI3Kdelta; conditions: 1 μM ATP, alpha vs. delta selectivity table
[3] = target: PI3Kγ (p110γ(Δ143-[Met144-1102])-His, BV950) (Homo sapiens (Human), UniProt P48736); assay: PI3K KinaseGlo assay, PI3Kgamma; conditions: 1 μM ATP, four-isoform table
[4] = alpha vs. delta selectivity table

Chain of PI3Kδ (p85iSH2(461-568)-p110δ(2-1044)-His, BV1060) (O00329 other isoform, or with tags, fused parts or gaps): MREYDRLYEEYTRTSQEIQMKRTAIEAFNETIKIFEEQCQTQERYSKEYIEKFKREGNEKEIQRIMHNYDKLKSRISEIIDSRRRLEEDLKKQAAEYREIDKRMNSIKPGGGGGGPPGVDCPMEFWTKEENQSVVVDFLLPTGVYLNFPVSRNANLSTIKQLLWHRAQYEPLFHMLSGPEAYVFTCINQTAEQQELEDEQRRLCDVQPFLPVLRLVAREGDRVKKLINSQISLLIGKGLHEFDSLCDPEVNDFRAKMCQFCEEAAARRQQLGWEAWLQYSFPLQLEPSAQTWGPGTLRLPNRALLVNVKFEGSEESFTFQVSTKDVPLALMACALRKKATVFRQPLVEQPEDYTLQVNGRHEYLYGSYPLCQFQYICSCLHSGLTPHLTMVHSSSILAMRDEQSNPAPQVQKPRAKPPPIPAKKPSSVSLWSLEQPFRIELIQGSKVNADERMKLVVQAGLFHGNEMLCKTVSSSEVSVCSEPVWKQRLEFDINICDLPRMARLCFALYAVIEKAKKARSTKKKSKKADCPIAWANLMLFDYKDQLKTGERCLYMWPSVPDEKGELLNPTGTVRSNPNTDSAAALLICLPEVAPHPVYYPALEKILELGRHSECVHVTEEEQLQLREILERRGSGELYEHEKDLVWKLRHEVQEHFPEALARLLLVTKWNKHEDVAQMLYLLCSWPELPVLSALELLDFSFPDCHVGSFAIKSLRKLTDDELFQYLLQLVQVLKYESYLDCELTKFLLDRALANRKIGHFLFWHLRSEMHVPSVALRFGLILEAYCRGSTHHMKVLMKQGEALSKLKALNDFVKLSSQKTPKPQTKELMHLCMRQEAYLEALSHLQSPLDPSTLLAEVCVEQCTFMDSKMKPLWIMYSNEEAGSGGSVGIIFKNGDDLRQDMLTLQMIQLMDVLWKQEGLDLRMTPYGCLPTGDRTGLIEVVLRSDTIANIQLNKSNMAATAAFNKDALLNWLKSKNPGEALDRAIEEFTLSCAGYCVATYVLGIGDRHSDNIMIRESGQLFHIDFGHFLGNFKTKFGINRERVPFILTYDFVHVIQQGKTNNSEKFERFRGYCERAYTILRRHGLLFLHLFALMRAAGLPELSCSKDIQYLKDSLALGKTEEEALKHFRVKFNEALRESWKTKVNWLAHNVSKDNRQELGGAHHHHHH
Chain of PI3Kα (p85iSH2(461-568)-p110α(21-1068)-His, BV1075) (P42336 other isoform, or with tags, fused parts or gaps): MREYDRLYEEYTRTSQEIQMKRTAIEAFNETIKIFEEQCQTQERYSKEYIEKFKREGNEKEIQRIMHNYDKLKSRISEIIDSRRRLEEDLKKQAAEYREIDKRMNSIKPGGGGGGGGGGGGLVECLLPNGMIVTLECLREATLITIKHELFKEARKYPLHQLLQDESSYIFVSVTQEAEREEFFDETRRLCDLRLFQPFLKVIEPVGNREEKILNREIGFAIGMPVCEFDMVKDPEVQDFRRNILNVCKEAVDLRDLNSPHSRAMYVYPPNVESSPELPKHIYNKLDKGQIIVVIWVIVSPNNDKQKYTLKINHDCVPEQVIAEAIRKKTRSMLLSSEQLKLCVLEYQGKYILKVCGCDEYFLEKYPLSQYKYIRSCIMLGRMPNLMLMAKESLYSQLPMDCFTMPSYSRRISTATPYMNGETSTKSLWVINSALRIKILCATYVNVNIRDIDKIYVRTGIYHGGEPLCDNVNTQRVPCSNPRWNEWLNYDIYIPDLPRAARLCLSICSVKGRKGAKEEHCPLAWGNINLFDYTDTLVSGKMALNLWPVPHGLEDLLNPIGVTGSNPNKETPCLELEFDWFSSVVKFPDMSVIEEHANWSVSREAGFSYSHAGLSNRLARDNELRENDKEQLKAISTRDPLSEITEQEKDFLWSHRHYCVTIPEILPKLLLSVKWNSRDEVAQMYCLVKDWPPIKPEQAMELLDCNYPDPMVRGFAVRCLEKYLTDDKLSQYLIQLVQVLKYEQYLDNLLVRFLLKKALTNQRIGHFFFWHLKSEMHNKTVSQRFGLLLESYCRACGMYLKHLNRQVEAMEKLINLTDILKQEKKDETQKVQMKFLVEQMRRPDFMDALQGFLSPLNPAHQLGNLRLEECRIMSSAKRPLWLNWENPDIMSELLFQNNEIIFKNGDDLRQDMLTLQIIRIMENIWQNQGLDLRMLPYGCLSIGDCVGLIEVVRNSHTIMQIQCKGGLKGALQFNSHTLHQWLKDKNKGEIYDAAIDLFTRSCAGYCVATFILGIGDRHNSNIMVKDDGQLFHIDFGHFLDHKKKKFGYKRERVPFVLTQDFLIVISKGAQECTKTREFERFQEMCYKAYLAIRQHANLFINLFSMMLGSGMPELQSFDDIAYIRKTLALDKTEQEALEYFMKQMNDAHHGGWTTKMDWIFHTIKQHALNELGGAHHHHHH
Chain of PI3Kγ (p110γ(Δ143-[Met144-1102])-His, BV950) (P48736 other isoform, or with tags, fused parts or gaps): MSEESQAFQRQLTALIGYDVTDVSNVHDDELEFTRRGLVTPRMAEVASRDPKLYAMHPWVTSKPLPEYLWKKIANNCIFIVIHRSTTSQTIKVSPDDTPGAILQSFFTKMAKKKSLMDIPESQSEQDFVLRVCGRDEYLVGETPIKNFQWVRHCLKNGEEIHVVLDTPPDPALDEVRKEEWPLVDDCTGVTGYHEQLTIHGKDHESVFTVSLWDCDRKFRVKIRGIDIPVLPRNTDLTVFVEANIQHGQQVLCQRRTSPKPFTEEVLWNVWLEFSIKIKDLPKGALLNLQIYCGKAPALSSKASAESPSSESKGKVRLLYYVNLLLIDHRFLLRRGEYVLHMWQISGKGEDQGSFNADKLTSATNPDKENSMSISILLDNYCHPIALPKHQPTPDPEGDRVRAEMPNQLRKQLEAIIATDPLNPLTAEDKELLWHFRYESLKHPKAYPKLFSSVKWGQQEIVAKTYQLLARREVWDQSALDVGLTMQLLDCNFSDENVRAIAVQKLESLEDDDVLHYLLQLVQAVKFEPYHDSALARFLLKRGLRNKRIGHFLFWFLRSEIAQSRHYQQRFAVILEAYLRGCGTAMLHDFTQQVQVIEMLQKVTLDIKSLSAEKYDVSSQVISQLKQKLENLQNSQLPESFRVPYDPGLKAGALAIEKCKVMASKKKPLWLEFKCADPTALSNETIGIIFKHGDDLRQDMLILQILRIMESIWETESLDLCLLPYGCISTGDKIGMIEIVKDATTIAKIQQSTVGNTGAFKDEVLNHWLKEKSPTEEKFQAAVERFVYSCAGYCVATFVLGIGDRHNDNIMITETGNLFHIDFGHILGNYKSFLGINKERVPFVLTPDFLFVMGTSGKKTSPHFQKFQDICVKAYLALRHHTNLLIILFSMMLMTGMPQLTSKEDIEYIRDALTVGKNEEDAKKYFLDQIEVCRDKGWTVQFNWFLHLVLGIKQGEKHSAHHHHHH

SMILES: Cc1nc(NC(=O)N2CCC[C@@]2(C)C(N)=O)sc1-c1ccnc(C(C)(C)C)n1 [Example 12, (S)-2-methyl-pyrrolidine-1,2-dicarboxylic acid 2-amide 1-{[5-(2-tert-butyl-pyrimidin-4-yl)-4-methyl-thiazol-2-yl]-amide}]
- IC50 [1, 4]: 0.015 µM
- Selectivity PI3Kalpha vs. PI3Kdelta [1]: 65-fold
- IC50 [2]: 0.974 µM

SMILES: Cc1nc(NC(=O)N2C[C@@H](F)C[C@H]2C(N)=O)sc1-c1ccnc(C(C)(C)C)n1 [Example 66]
- IC50 ([1]; 10 nM enzyme, 30 mins): 0.04 µM
- IC50 [1, 4]: 0.04 µM
- Selectivity PI3Kalpha vs. PI3Kdelta [1]: 32-fold
- IC50 [2]: 1.27 µM

SMILES: Cc1nc(NC(=O)N2C[C@H](N(C)C)C[C@H]2C(N)=O)sc1-c1ccnc(C(C)(C)C)n1 [Example 70, (2S,4R)-4-Dimethylamino-pyrrolidine-1,2-dicarboxylic acid 2-amide 1-{[5-(2-tert-butyl-pyrimidin-4-yl)-4-methyl-thiazol-2-yl]-amide}]
- IC50 [1, 4]: 0.014 µM
- Selectivity PI3Kalpha vs. PI3Kdelta [1]: 246-fold
- IC50 [2]: 3.45 µM

SMILES: COC[C@@]1(C(N)=O)CCCN1C(=O)Nc1nc(C)c(-c2ccnc(C(C)(C)C)n2)s1 [Example 112, (R)-2-Methoxymethyl-pyrrolidine-1,2-dicarboxylic acid 2-amide 1-{[5-(2-tert-butyl-pyrimidin-4-yl)-4-methyl-thiazol-2-yl]-amide}]
- IC50 ([1]; 10 nM enzyme, 30 mins): 0.049 µM

SMILES: Cc1nc(NC(=O)N2CCC[C@]2(C(N)=O)C(F)F)sc1-c1ccnc(C(C)(C)C)n1 [Example 114, (S)-2-Difluoromethyl-pyrrolidine-1,2-dicarboxylic acid 2-amide 1-{[5-(2-tert-butyl-pyrimidin-4-yl)-4-methyl-thiazol-2-yl]-amide}]
- IC50 ([1]; 10 nM enzyme, 30 mins): 0.13 µM

SMILES: CC1(c2cc(-c3cnc(NC(=O)N4CCC[C@@]4(C)C(N)=O)s3)ccn2)CC1 [Example 117, S)-2-Methyl-pyrrolidine-1,2-dicarboxylic acid 2-amide 1-({5-[2-(1-methyl-cyclopropyl)-pyridin-4-yl]-thiazol-2-yl}amide]
- IC50 ([1]; 10 nM enzyme, 30 mins): 0.026 µM

SMILES: CC(C)(c1cc(-c2cnc(NC(=O)N3CCC[C@@]3(C)C(N)=O)s2)ccn1)C(F)(F)F [Example 119, S)-2-Methyl-pyrrolidine-1,2-dicarboxylic acid 2-amide 1-({5-[2-(2,2,2-trifluoro-1,1-dimethyl-ethyl)-pyridin-4-yl}-thiazol-2-yl]-amide]
- IC50 ([1]; 10 nM enzyme, 30 mins): 0.008 µM

SMILES: CCN(CC)c1cc(-c2cnc(NC(=O)N3CCC[C@@]3(C)C(N)=O)s2)ccn1 [Example 122, (S)-2-Methyl-pyrrolidine-1,2-dicarboxylic acid 2-amide 1-{[5-(2-diethylamino-pyridin-4-yl)-thiazol-2-yl]-amide}]
- IC50 ([1]; 10 nM enzyme, 30 mins): 0.05 µM

SMILES: COc1ccc(C(C)(C)c2cc(-c3cnc(NC(=O)N4CCC[C@@]4(C)C(N)=O)s3)ccn2)cc1 [Example 124, (S)-2-Methyl-pyrrolidine-1,2-dicarboxylic acid 2-amide 1-[(5-{2-[1-(4-methoxy-phenyl)-1-methyl-ethyl]-pyridin-4-yl}-thiazol-2-yl)-amide]]
- IC50 ([1]; 10 nM enzyme, 30 mins): 0.028 µM

SMILES: CC1(c2cc(-c3sc(NC(=O)N4CCC[C@@]4(C)C(N)=O)nc3Cl)ccn2)CC1 [Example 129, S)-2-Methyl-pyrrolidine-1,2-dicarboxylic acid 2-amide 1-({4-chloro-5-[2-(1-methyl-cyclopropyl)-pyridin-4-yl]-thiazol-2-yl}-amide]
- IC50 ([1]; 10 nM enzyme, 30 mins): 0.024 µM

SMILES: Cc1nc(NC(=O)N2CCC[C@@]2(C)C(N)=O)sc1-c1csc(CC2CC2)n1 [Example 151, (S)-2-Methyl-pyrrolidine-1,2-dicarboxylic acid 2-amide 1-[(2-cyclopropylmethyl-4′-methyl-[4,5′]bithiazolyl-2′-yl)-amide]]
- IC50 [3]: 0.928 µM
